{"source": "paper PMC12502564", "about": "“Evaluation of LLM-generated peptide as foundation template for discovery of effective encrypted AMPs against clinical superbugs” (Microbiology Spectrum, 2025)", "key": {"MRSA 2210187 [1]": {"tested_on": "MRSA 2210187", "details": "10% fetal bovine serum, room temperature, 1–6 h, then MIC assay, triplicate", "procedure": "For serum sensitivity experiments, the peptide to be tested was incubated in 10% fetal bovine serum at room temperature for 1–6 h. After deactivation, the MICs of peptides against CRAB 2210186 and MRSA 2210187 were measured using the MIC assay. All experiments were performed in triplicate to ensure reliability."}, "MRSA 2210187 [2]": {"tested_on": "MRSA 2210187", "assay_type": "cell-based, methicillin-resistant Staphylococcus aureus", "details": "2210187", "protocol": "(§1) The MIC of all peptides was determined using the microdilution broth method in a 96-well plate. Peptides were dissolved in the DMSO with an initial concentration of 12,800 µg mL^−1. And cells of eight strains were separately suspended in the MHB at a density of approximately 10^5 CFU mL^−1. In the first column of the 96-well plate, 16 µL of peptide and 184 µL of MHB were added to each well to achieve a final concentration of 1,024 µg mL^−1. One-hundred microliters of MHB was added to each of the remaining wells. Then the first column of liquid was mixed well and diluted to the 12th column using the twofold dilution method. One-hundred microliters of prepared bacterial solution was added to all wells, and the 96-well plate was incubated at 37°C for 18–24 h. The MIC was defined as the concentration of the peptide in the well just preceding the first well showing visible turbidity. All experiments were performed in triplicate to ensure reliability."}, "MRSA [3]": {"tested_on": "MRSA", "test": "MBC determination, MBC/MIC ratio", "assay_type": "cell-based, methicillin-resistant Staphylococcus aureus", "details": "MBC/MIC ≤4 is considered bactericidal", "protocol": "The MBC was determined using the microdilution broth method described above for MIC determination. After identifying the clear wells (no growth), 10 µL of the liquid from these wells was transferred and spread on a nutrient agar plate. The plate was incubated at 37°C for 18–24 h. […] The lowest concentration with no visible growth was considered the MBC."}, "sheep red blood cells": {"tested_on": "sheep red blood cells", "test": "Hemolysis test", "assay_type": "cell-based", "details": "4% sheep red blood cell suspension in PBS, 37°C, 1 h, OD 450 nm, log2-transformed", "protocol": "Freshly collected sheep red blood cells, provided by Solarbio (Beijing, China), were washed three times with PBS to prepare a red blood cell suspension (2,000 rpm). Subsequently, the resulting red blood cells were suspended in 1 × PBS buffer and adjusted to a 4% red blood cell suspension. In a 96-well plate, perform twofold serial dilutions of the test peptides in 1 × PBS to final concentrations of 512, 256, 128, 64, 32, 16, 8, 4, 2, 1, 0.5, and 0.25 µg mL^−1 in each well. Use Triton X-100 as a positive control and 1 × PBS buffer as a negative control. Take 100 µL of red blood cell solution and 100 µL of peptide solutions with different concentration gradients and control solutions, add them to a new 96-well plate, and incubate at 37°C for 1 h. Subsequently, the 96-well plate was centrifuged at 4,000 rpm for 10 min, and the supernatant was collected into a 96-well plate for later use. Then the absorbance was measured at a wavelength of 450 nm using a microplate reader. All experiments were repeated in three parallel groups and averaged. The hemolysis rate was calculated by the following formula and the IC50 value of each AMPs was calculated by online tools: https://www.aatbio.com/tools/ic50-calculator.\n(1) Hemolysis rate (%)=OD(AMP)− OD(PBS)/OD(TritonX−100)− OD(PBS)×100%"}, "A. baumannii ATCC19606": {"tested_on": "A. baumannii ATCC19606", "assay_type": "cell-based, Acinetobacter baumannii", "protocol": "as §1"}, "CRAB [4]": {"tested_on": "CRAB", "test": "Drug resistance assay, 20 passages", "assay_type": "cell-based, carbapenem-resistant Acinetobacter baumannii", "details": "20 passages at 0.5-fold MIC, n = 3", "protocol": "Resistance development assays were performed following previous report ([43]). CRAB was cultured overnight at 37°C at 160 rpm in LB. In wells of a 96-well polypropylene flat-bottom plate, 5 µL of the overnight bacterial culture (10^7 CFU mL^−1) was added to 100 µL of peptides/antibiotic solutions (with final concentrations of 0.25 to 512 µg mL^−1) in MHB. Plates were incubated for 18 to 20 h at 37°C. The MIC, the lowest concentration of peptides/antibiotic that caused lack of visible bacterial growth, was determined for each bacterial species. Thereafter, 5 µL of the growth at the 0.5-fold MIC suspension (10^7 CFU mL^−1) was added to a fresh medium containing peptides/antibiotic, and these mixtures were incubated as described above. This was repeated for 20 passages. All experiments were performed in triplicate to ensure reliability."}, "CRAB [5]": {"tested_on": "CRAB", "test": "Time-kill curve", "assay_type": "cell-based, carbapenem-resistant Acinetobacter baumannii", "details": "~10^5 CFU mL^−1 in MH broth", "protocol": "(§2) Bacteria in the logarithmic growth phase were diluted to approximately 10^5 CFU mL^−1 in MH broth and treated with peptides, polymyxin B, or vancomycin at final concentrations of 1/2 × MIC, 1 × MIC, 2 × MIC, and 4 × MIC. After the addition of the test compound, samples were taken at 0, 3, 6, 9, 12, and 24 h and serially diluted. Subsequently, 5 µL of the diluted samples were spread on agar plates and incubated at 37°C for 20 h. The bacterial concentration CFU mL^−1 at the corresponding time point of each sample was calculated based on the number of colonies on the agar plate, and the log10 (CFU mL^−1) was plotted against time (h)."}, "E. coli ATCC25922": {"tested_on": "E. coli ATCC25922", "assay_type": "cell-based, Escherichia coli", "protocol": "as §1"}, "MRSA [6]": {"tested_on": "MRSA", "test": "Time-kill curve", "assay_type": "cell-based, methicillin-resistant Staphylococcus aureus", "details": "~10^5 CFU mL^−1 in MH broth", "protocol": "as §2"}, "CRKP 2403276": {"tested_on": "CRKP 2403276", "assay_type": "cell-based, carbapenem-resistant K. pneumoniae", "protocol": "as §1"}, "CRAB [7]": {"tested_on": "CRAB", "test": "ROS accumulation assay (DCFH-DA)", "assay_type": "cell-based, carbapenem-resistant Acinetobacter baumannii", "details": "10 µM DCFH-DA, 2 h incubation", "protocol": "Bacteria in the logarithmic growth phase were prepared to OD600 = 0.5. Ten microliters of DCFH-DA was added to 190 µL of bacterial solution to a final concentration of 10 µM and incubated at 37°C for 30 min. After washing with PBS three times, 190 µL of probe-labeled bacterial cells were added to a 96-well plate, and 10 µL of the sample to be tested was added. After incubation for another 2 h, the fluorescence intensity was immediately measured using a microplate reader with an excitation wavelength of 488 nm and an emission wavelength of 525 nm. The antioxidant NAC (6 mM) was used as a control to neutralize the production of ROS."}}, "note": "No end group written: not given here."}
{"sequence": "WLKRILKWIGNKLKW [PL-15]", "values": [{"measurement": "fold change in MIC after incubation in serum", "setting": "MRSA 2210187 [1]", "result": "maximum twofold increase"}, {"measurement": "MIC", "setting": "MRSA 2210187 [2]", "result": 2, "unit": "µg/mL"}, {"measurement": "bactericidal classification by MBC/MIC ratio", "setting": "MRSA [3]", "result": "bactericidal effects"}, {"measurement": "log2IC50 (50% hemolytic concentration)", "setting": "sheep red blood cells", "result": "≥ 3"}, {"measurement": "MIC", "setting": "A. baumannii ATCC19606", "result": "lower than 11 µg mL^−1"}, {"measurement": "MIC change after serial passaging", "setting": "CRAB [4]", "result": "within a twofold range"}, {"measurement": "time to kill CRAB", "setting": "CRAB [5]; 1/2 × MIC", "result": "≤ 6", "unit": "h"}, {"measurement": "time to kill CRAB", "setting": "CRAB [5]; 1 × MIC", "result": "≤ 6", "unit": "h"}, {"measurement": "time to complete bacterial eradication of CRAB", "setting": "CRAB [5]; 2 × MIC", "result": "≤ 3", "unit": "h"}, {"measurement": "time to kill CRAB", "setting": "CRAB [5]; 4 × MIC", "result": "≤ 3", "unit": "h"}, {"measurement": "MIC", "setting": "E. coli ATCC25922", "result": "lower than 11 µg mL^−1"}, {"measurement": "time to eliminate MRSA", "setting": "MRSA [6]; 1/2 × MIC", "result": "≤ 6", "unit": "h"}, {"measurement": "time to complete bacterial eradication of MRSA", "setting": "MRSA [6]; 1 × MIC", "result": "≤ 6", "unit": "h"}, {"measurement": "time to full bacterial killing of MRSA", "setting": "MRSA [6]; 2 × MIC", "result": "≤ 3", "unit": "h"}, {"measurement": "time to full bacterial killing of MRSA", "setting": "MRSA [6]; 4 × MIC", "result": "≤ 3", "unit": "h"}, {"measurement": "MIC", "setting": "CRKP 2403276", "result": "lower than 11 µg mL^−1"}, {"measurement": "ROS levels (DCF fluorescence)", "setting": "CRAB [7]", "result": "concentration-dependent surge in ROS levels"}]}
